Experimental data as given in patent publication US5767142A, “Trisbenzimidazoles useful as topoisomerase I inhibitors” (Rutgers, The State University of New Jersey, priority 1996, dated 1998).
“Also recorded” adds a separate entry of the source. Read-outs that look alike come from different tables or passages of the source.

Assays:
[1] = cited from earlier work
[2] = test system: human epidermoid carcinoma KB3-1 cell line; assay: MTT cytotoxicity assay, KB3-1; type: cell-based; conditions: KB 3-1, 96 h, 4 days continuous drug exposure
Protocol: (§1) The cytotoxicity was determined using the as MTT-microtiter plate tetrazolinium cytotoxicity assay (MTA) following the procedures of F. Denizot et al., J. Immunol. […] The cytotoxicity assay was performed using 96-well microtiter plates. Cells were grown in suspension at 37° C. in 5% CO2 and maintained by regular passage in RPMI medium supplemented with 10% heat inactivated fetal bovine serum, L-glutamine (2 mM), penicillin (100 U/ml), and streptomycin (0.1 mg/ml). For determination of IC50, cells were exposed continuously with varying concentrations of drug concentrations and MTT assays were performed at the end of the fourth day.
(§2) These cells were grown as monolayer cultures at in 5% CO2 and maintained by regular passage in Dulbecco's minimal essential medium supplemented with 10% heat inactivated fetal bovine serum. KBV-1 cells were similarly maintained except they were grown in the presence of 1 μg/ml vinblastine.

[3] = test system: human lymphoblast RPMI 8402 cells; assay: MTT cytotoxicity assay, RPMI 8402; type: cell-based; conditions: Homo sapiens, RPMI 8402, 96 h; 4 days continuous drug exposure; read-out: Cytotoxicity IC50, RPMI
Protocol: as §1

[4] = test system: KBV-1 cells (multidrug-resistant variant of KB3-1, overexpress MDR1); conditions: cited from earlier work
[5] = biological target: T1, calf thymus topoisomerase I (Bos taurus, UniProt A0AAA9TV68); assay: Topoisomerase I-mediated DNA cleavage assay (calf thymus topoisomerase I, plasmid YEpG); type: biochemical
T1 construct: plasmid YEpG DNA cleavage assay
T1 sequence (A0AAA9TV68 2-769): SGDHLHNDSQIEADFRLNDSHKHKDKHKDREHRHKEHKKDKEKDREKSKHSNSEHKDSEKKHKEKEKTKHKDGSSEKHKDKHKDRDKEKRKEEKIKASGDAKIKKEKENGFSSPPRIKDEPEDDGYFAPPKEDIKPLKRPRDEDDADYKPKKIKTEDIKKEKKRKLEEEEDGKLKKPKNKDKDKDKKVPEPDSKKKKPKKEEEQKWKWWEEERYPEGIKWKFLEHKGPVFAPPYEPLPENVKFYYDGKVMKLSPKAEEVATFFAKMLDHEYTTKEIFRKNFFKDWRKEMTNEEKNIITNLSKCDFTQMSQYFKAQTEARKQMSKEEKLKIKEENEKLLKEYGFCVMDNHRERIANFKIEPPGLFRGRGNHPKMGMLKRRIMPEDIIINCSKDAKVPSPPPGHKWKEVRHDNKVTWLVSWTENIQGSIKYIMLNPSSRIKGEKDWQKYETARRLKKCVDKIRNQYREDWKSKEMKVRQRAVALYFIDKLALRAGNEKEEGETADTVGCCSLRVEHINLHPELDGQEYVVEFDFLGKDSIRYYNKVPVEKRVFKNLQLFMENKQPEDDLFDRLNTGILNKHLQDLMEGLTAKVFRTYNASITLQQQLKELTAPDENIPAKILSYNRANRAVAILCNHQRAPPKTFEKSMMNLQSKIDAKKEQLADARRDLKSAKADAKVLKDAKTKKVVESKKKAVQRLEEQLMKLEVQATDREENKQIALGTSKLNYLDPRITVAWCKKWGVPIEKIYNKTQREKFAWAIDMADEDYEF
Excerpt: DNA topoisomerase I was purified from calf thymus gland as reported previously by B. D. Halligan et al., J. Biol. Chem., 260, 2475 (1985). Plasmid YEpG was also purified by the alkali lysis method followed by phenol deproteination and CsCl/ethidium isopycnic centrifugation as described by T. Mariatis et al., Molecular Cloning, A Laboratory Manual, Cold Spring Harbor Labs, NY (1982) at pages 149-185. The end-labeling of the plasmid was accomplished as previously described by L. F. Liu et al., J. Biol. Chem., 258, 15365 (1983). The cleavage assays were performed as previously reported by A. Y. Chen et al., Cancer Res., 53, 1332 (1993). Human topoisomerase was isolated as a recombinant fusion protein using a T7 expression system.
^b Topoisomerase I cleavage values are reported as REC, Relative
Effective Concentration, i.e. concentrations relative to Hoechst 33342,
whose value is arbitrarily assumed as 1, that are able to produce the sam
cleavage on the plasmid DNA in the presence of calf thymus topoisomerase
I. Cleavage is calculated from the intensity of the strongest Hoechst

[6] = test system: human epidermoid carcinoma KB3-1 cell line; conditions: previously reported; read-out: IC50 of Hoechst 33342 in KB 3-1 cells; cited from earlier work
[7] = test system: topoisomerase I; conditions: literature; cited from earlier work
[8] = test system: CPT-K5 cells (camptothecin-resistant variant of RPMI 8402); assay: MTT cytotoxicity assay, camptothecin-resistant CPT-K5; type: cell-based, human
Protocol: as §1

[9] = test system: KBV-1 cells (multidrug-resistant variant of KB3-1, overexpress MDR1); assay: MTT cytotoxicity assay, multidrug-resistant KBV-1; type: cell-based, human; conditions: Homo sapiens, KB-V1, 96 h; 4 days continuous drug exposure; read-out: Cytotoxicity IC50, KBV-1
Protocol: as §1, §2

Question: Which “Protonation at physiological pH (in words)” value [1] does the source give for `CCOc1ccc(-c2nc3cc(-c4nc5cc(N6CCN(C)CC6)ccc5[nH]4)ccc3[nH]2)cc1` [Hoechst 33342, 2'-(4-ethoxyphenyl)-5-(4-methyl-1-piperazinyl)-2,5'-bi-1H-benzimidazole, reference compound] here?
Answer: extensively protonated at physiological pH

Question: And the IC50 [2]?
Answer: 10 nM

Question: What about the IC50 [3] of the same compound?
Answer: 30 nM

Question: And the “Difference of IC50 between KB 3-1 and KB V-1 cells (in words)” value ([4]; as reported by A. Y. Chen et al., Adv. Pharmacol., 245, 29B (1994))?
Answer: differs by approximately two-orders of magnitude

Question: And the “less cytotoxic to KB V-1 cells than to KB 3-1 cells” value ([4]; previously reported, KB V-1 overexpress MDR1)?
Answer: approximately 130 fold

Question: And the “Efficacy against tumor cell lines which overexpress MDR1 (in words)” value ([4]; previously reported)?
Answer: not effective against tumor cell lines which overexpress MDR1

Question: What about the “Topo I-mediated DNA cleavage (REC, Relative Effective Concentration)” value [5] of the same compound?
Answer: 1

Question: What about the IC50 [6] of the same compound?
Answer: ~9 nM

Question: And the “Inhibition of topoisomerase I (in words)” value [7]?
Answer: is an inhibitor of topoisomerase I; also recorded: traps the reversible cleavable complex derived from DNA and topoisomerase I and produces a limited number of highly specific single-strand DNA breaks

Question: And the “Cytotoxicity against CPT-K5 cells (in words)” value [8]?
Answer: effective against camptothecin-resistant CPT-K5 cells

Question: And the “Relative resistance (ratio of IC50 values of resistant versus drug sensitive cell line)” value ([8]; CPT-K5 versus RPMI 8402, 5760 min)?
Answer: approximately 30 fold

Question: And the IC50 ([8]; Homo sapiens, CPT-K5, 96 h, 4 days continuous drug exposure, read-out: Cytotoxicity IC50, CPT-K5)?
Answer: 900 nM

Question: And the IC50 [9]?
Answer: 1200 nM
